Laboratory results published in patent US20230255884A1, “FINISHED FIBROUS SRUCTURES AND METHODS OF THEIR USE AND PREPARATION” (CLEXIO BIOSCIENCES LTD., priority 2019, published 2023).
Structures can show the parent of a compound that is named as a salt. Where two headings read alike, the source gives them in different places. Blank lines part the entries; values can stand above or below the molecule they belong to.

Columns and labels:
[1] = Example 16: % Add on of diclofenac compositions (10% Diclofenac sodium salt, 10% PEG 400, 10% propylene glycol, 2% Polysorbate 80), 60° C., 1 h, squeezed; format: physicochemical
Description: The samples were then removed from their vessels, squeezed, weighed and left to dry overnight at room temperature before their dry weight and percentage Add on were determined.

[2] = Example 16: diclofenac in the mother liquor by HPLC; format: physicochemical
[3] = Example 9: % Add on of 91.4% polyamide/8.6% elastane after 1 h in aqueous 10% PEG 400, 10% propylene glycol, 2% Polysorbate 80 with lidocaine, dried overnight at RT; format: physicochemical
[4] = format: physicochemical; conditions: 25° C.
[5] = Example 11: % Add on from aqueous lidocaine without excipients, 60° C., 1 h, 91.4% polyamide/8.6% elastane; format: physicochemical
[6] = Example 20: loading kinetics, aqueous 10% lidocaine, 10% PEG 400, 10% propylene glycol, 2% Polysorbate 80, 60° C., pre-cut shapes of 91.4% polyamide/8.6% elastane, squeezed; format: physicochemical
[7] = Example 21: % Add on by finish composition, 60° C., 1 h, 91.4% polyamide/8.6% elastane; format: physicochemical
[8] = Example 22: % Add on by humectant and permeation enhancer concentration, 60° C., 1 h, squeezed; format: physicochemical; conditions: 3% lidocaine
[9] = Example 23: % Add on by surfactant concentration, 60° C., 1 h; format: physicochemical; conditions: 3% lidocaine
[10] = Example 26: leveling; % lidocaine Add on from extraction in 0.01M HCl and HPLC; format: physicochemical
[11] = 3% lidocaine, 2% Polysorbate 80
[12] = 3% lidocaine, 10% PEG 400, 2% Polysorbate 80
[13] = 3% lidocaine, 10% PEG 400, 10% propylene glycol
[14] = 3% lidocaine, 10% PEG 400, 10% propylene glycol, 2% Polysorbate 80
[15] = 3% lidocaine, 10% propylene glycol
[16] = 3% lidocaine, 10% propylene glycol, 2% Polysorbate 80

% Add on ([1]; NaOH 1 drop, pH 13.2): 32.0%
% Add on ([1]; NaOH 1 drop, pH 14.0): 46.0%
% Add on ([1]; ethanol 13.6% (w/w), no NaOH, pH 8.3): 44.1%
% Add on ([1]; no ethanol, no NaOH, pH 8.5): 42.2%
diclofenac concentration in the mother liquor ([2]; ethanol based liquor): 90.76 mg/g
diclofenac concentration in the mother liquor ([2]; water based liquor): 93.68 mg/g
Compound: O=C(O)Cc1ccccc1Nc1c(Cl)cccc1Cl [Diclofenac, Diclofenac sodium salt]

Compound: CCN(CC)CC(=O)Nc1c(C)cccc1C [Lidocaine, lidocaine]
% Add on ([3]; lidocaine 0.1% (w/w), 2-8° C.): 25.93%
% Add on ([3]; lidocaine 0.1% (w/w), 50° C.): 32.73%
% Add on ([3]; lidocaine 0.1% (w/w), 80° C.): 32.20%
% Add on ([3]; lidocaine 0.1% (w/w), RT): 23.91%
% Add on ([3]; lidocaine 0.5% (w/w), 2-8° C.): 31.48%
% Add on ([3]; lidocaine 0.5% (w/w), 50° C.): 29.79%
% Add on ([3]; lidocaine 0.5% (w/w), 80° C.): 23.91%
% Add on ([3]; lidocaine 0.5% (w/w), RT): 26.79%
% Add on ([3]; lidocaine 1% (w/w), 2-8° C.): 34.00%
% Add on ([3]; lidocaine 1% (w/w), 50° C.): 64.44%
% Add on ([3]; lidocaine 1% (w/w), 80° C.): 32.14%
% Add on ([3]; lidocaine 1% (w/w), RT): 33.96%
% Add on ([3]; lidocaine 3% (w/w), 2-8° C.): 40.00%
% Add on ([3]; lidocaine 3% (w/w), 50° C.): 56.52%
% Add on ([3]; lidocaine 3% (w/w), 80° C.): 48.98%
% Add on ([3]; lidocaine 3% (w/w), RT): 43.75%
% Add on ([3]; lidocaine 5% (w/w), 2-8° C.): 60.00%
% Add on ([3]; lidocaine 5% (w/w), 50° C.): 46.00%
% Add on ([3]; lidocaine 5% (w/w), 80° C.): 64.91%
% Add on ([3]; lidocaine 5% (w/w), RT): 47.27%
% Add on ([3]; lidocaine 8% (w/w), 2-8° C.): 50.00%
% Add on ([3]; lidocaine 8% (w/w), 50° C.): 64.15%
% Add on ([3]; lidocaine 8% (w/w), 80° C.): 89.13%
% Add on ([3]; lidocaine 8% (w/w), RT): 58.00%
% Add on ([3]; lidocaine 10% (w/w), 2-8° C.): 55.77%
% Add on ([3]; lidocaine 10% (w/w), 50° C.): 74.55%
% Add on ([3]; lidocaine 10% (w/w), 80° C.): 78.72%
% Add on ([3]; lidocaine 10% (w/w), RT): 102.04%
% Add on ([3]; lidocaine 15% (w/w), 2-8° C.): 69.77%
% Add on ([3]; lidocaine 15% (w/w), 50° C.): 95.74%
% Add on ([3]; lidocaine 15% (w/w), 80° C.): 117.78%
% Add on ([3]; lidocaine 15% (w/w), RT): 116.98%
% Add on ([3]; lidocaine 20% (w/w), 2-8° C.): 78.72%
% Add on ([3]; lidocaine 20% (w/w), 50° C.): 107.41%
% Add on ([3]; lidocaine 20% (w/w), 80° C.): 116.00%
% Add on ([3]; lidocaine 20% (w/w), RT): 134.04%
% Add on ([3]; lidocaine 25% (w/w), 2-8° C.): 132.08%
% Add on ([3]; lidocaine 25% (w/w), 50° C.): 124.00%
% Add on ([3]; lidocaine 25% (w/w), 80° C.): 132.56%
% Add on ([3]; lidocaine 25% (w/w), RT): 269.57%
% Add on ([4]; lidocaine 0.1%, dried at RT): 42.31%
% Add on ([4]; lidocaine 0.1%, squeezed): 7.23%
% Add on ([4]; lidocaine 0.1%, washed in NaOH): 2.74%
% Add on ([4]; lidocaine 0.1%, washed in water): 1.40%
% Add on ([4]; lidocaine 25%, dried at RT): 118.56%
% Add on ([5]; lidocaine 0.1% w/w, dried at RT): 1.03%
% Add on ([5]; lidocaine 0.1% w/w, squeezed): 1.09%
% Add on ([5]; lidocaine 0.4% w/w, dried at RT): 2.86%
% Add on ([5]; lidocaine 0.4% w/w, squeezed): 2.91%
% Add on ([5]; lidocaine 1% w/w, dried at RT): 8.03%
% Add on ([5]; lidocaine 1% w/w, squeezed): 7.57%
% Add on ([5]; lidocaine 3% w/w, dried at RT): 22.17%
% Add on ([5]; lidocaine 3% w/w, squeezed): 28.01%
% Add on ([5]; lidocaine 5% w/w, dried at RT): 31.61%
% Add on ([5]; lidocaine 5% w/w, squeezed): 39.06%
% Add on ([5]; lidocaine 10% w/w, dried at RT): 102.39%
% Add on ([5]; lidocaine 10% w/w, squeezed): 30.39%
% Add on ([5]; lidocaine 15% w/w, dried at RT): 62.68%
% Add on ([5]; lidocaine 15% w/w, squeezed): 98.46%
% Add on ([5]; lidocaine 25% w/w, dried at RT): 56.33%
% Add on ([5]; lidocaine 25% w/w, squeezed): 148.02%
% Add on ([6]; loading time 1 min, Combined): 29.915%
% Add on ([6]; loading time 1 min, Shape A): 29.820%
% Add on ([6]; loading time 1 min, Shape B): 27.838%
% Add on ([6]; loading time 1 min, Shape C): 30.455%
% Add on ([6]; loading time 1 min, Shape D): 31.547%
% Add on ([6]; loading time 2 min, Combined): 35.227%
% Add on ([6]; loading time 2 min, Shape A): 34.985%
% Add on ([6]; loading time 2 min, Shape B): 36.019%
% Add on ([6]; loading time 2 min, Shape C): 34.260%
% Add on ([6]; loading time 2 min, Shape D): 35.643%
% Add on ([6]; loading time 3 min, Combined): 36.500%
% Add on ([6]; loading time 3 min, Shape A): 37.273%
% Add on ([6]; loading time 3 min, Shape B): 36.782%
% Add on ([6]; loading time 3 min, Shape C): 35.879%
% Add on ([6]; loading time 3 min, Shape D): 36.064%
% Add on ([6]; loading time 6 min, Combined): 41.938%
% Add on ([6]; loading time 6 min, Shape A): 42.242%
% Add on ([6]; loading time 6 min, Shape B): 44.328%
% Add on ([6]; loading time 6 min, Shape C): 40.764%
% Add on ([6]; loading time 6 min, Shape D): 40.418%
% Add on ([6]; loading time 10 min, Combined): 41.190%
% Add on ([6]; loading time 10 min, Shape A): 39.998%
% Add on ([6]; loading time 10 min, Shape B): 44.262%
% Add on ([6]; loading time 10 min, Shape C): 40.939%
% Add on ([6]; loading time 10 min, Shape D): 39.560%
% Add on ([6]; loading time 60 min, Combined): 44.374%
% Add on ([6]; loading time 60 min, Shape B): 41.509%
% Add on ([6]; loading time 60 min, Shape C): 48.701%
% Add on ([6]; loading time 60 min, Shape D): 41.556%
% Add on ([6]; loading time 120 min, Combined): 42.458%
% Add on ([6]; loading time 120 min, Shape A): 42.233%
% Add on ([6]; loading time 120 min, Shape B): 43.286%
% Add on ([6]; loading time 120 min, Shape C): 43.679%
% Add on ([6]; loading time 120 min, Shape D): 40.635%
% Add on ([6]; loading time 180 min, Combined): 41.691%
% Add on ([6]; loading time 180 min, Shape A): 42.281%
% Add on ([6]; loading time 180 min, Shape B): 40.802%
% Add on ([6]; loading time 180 min, Shape C): 42.474%
% Add on ([6]; loading time 180 min, Shape D): 41.206%
Mean % Add on (dried at RT) ([7]; 3% lidocaine only): 37.25%
Mean % Add on (squeezed) ([7]; 3% lidocaine only): 20.27%
Mean % Add on (dried at RT) [7, 11]: 19.10%
Mean % Add on (squeezed) [7, 11]: 14.97%
Mean % Add on (dried at RT) ([7]; 3% lidocaine, 10% PEG 400): 54.02%
Mean % Add on (squeezed) ([7]; 3% lidocaine, 10% PEG 400): 32.03%
Mean % Add on (dried at RT) [7, 12]: 42.88%
Mean % Add on (squeezed) [7, 12]: 24.91%
Mean % Add on (dried at RT) [7, 13]: 56.37%
Mean % Add on (squeezed) [7, 13]: 30.01%
Mean % Add on (dried at RT) [7, 14]: 40.92%
Mean % Add on (squeezed) [7, 14]: 25.73%
Mean % Add on (dried at RT) [7, 15]: 34.89%
Mean % Add on (squeezed) [7, 15]: 21.14%
Mean % Add on (dried at RT) [7, 16]: 19.34%
Mean % Add on (squeezed) [7, 16]: 14.48%
Mean % Add on ([8]; 2% PEG 400, 2% Polysorbate 80): 16.59%
Mean % Add on ([8]; 2% propylene glycol, 2% Polysorbate 80): 14.96%
Mean % Add on ([8]; 8% PEG 400, 2% Polysorbate 80): 26.06%
Mean % Add on ([8]; 8% propylene glycol, 2% Polysorbate 80): 15.93%
Mean % Add on ([8]; 15% PEG 400, 2% Polysorbate 80): 30.96%
Mean % Add on ([8]; 15% propylene glycol, 2% Polysorbate 80): 14.84%
Mean % Add on ([8]; 20% PEG 400, 2% Polysorbate 80): 37.95%
Mean % Add on ([8]; 20% propylene glycol, 2% Polysorbate 80): 16.03%
Mean % Add on (dried at RT) ([9]; 2% Polysorbate 80): 16.18%
Mean % Add on (dried at RT) ([9]; 5% Polysorbate 80): 22.89%
Mean % Add on (dried at RT) ([9]; 8% Polysorbate 80): 21.18%
Mean % Add on (dried at RT) ([9]; 10% PEG 400): 39.67%
Mean % Add on (dried at RT) ([9]; 10% Polysorbate 80): 24.11%
Mean % Add on (dried at RT) ([9]; 10% propylene glycol): 23.99%
Mean % Add on (dried at RT) ([9]; 15% Polysorbate 80): 33.29%
Mean % Add on (dried at RT) ([9]; 20% Polysorbate 80): 38.08%
% lidocaine Add on ([10]; exposure to 0.01M HCl 1 hr): 18.86%
% lidocaine Add on ([10]; exposure to 0.01M HCl 2 hr): 18.07%
% lidocaine Add on ([10]; exposure to 0.01M HCl 4 hr): 18.78%
% lidocaine Add on ([10]; exposure to 0.01M HCl 6 hr): 18.25%
% lidocaine Add on ([10]; exposure to 0.01M HCl 22 hr): 18.04%
